Measurements published in patent US12637468B2, “Substituted [1,2,4]triazolo[4,3-b]pyridazines as GABAA receptor modulators” (SHANGHAI SIMR BIOTECHNOLOGY CO., LTD., priority 2019, dated 2026).

target: T1, α5-GABAA receptor (Homo sapiens, UniProt P18507+P31644); assay: Cell-level screening: whole cell patch clamp, inverse agonist efficacy on α5-GABAA receptor expressed in HEK293; type: cell-based; conditions: drug 100 nM, GABA 0.05 μM, HEK293 expressing α5, β3 and γ2 subunits, clamped at −60 mV; read-out: Compound inverse agonist efficacy %
T1 construct: expressed in transfected cells; host or cells: HEK293, monoclonal stably transfected line
T1 sequence (P31644 32-462): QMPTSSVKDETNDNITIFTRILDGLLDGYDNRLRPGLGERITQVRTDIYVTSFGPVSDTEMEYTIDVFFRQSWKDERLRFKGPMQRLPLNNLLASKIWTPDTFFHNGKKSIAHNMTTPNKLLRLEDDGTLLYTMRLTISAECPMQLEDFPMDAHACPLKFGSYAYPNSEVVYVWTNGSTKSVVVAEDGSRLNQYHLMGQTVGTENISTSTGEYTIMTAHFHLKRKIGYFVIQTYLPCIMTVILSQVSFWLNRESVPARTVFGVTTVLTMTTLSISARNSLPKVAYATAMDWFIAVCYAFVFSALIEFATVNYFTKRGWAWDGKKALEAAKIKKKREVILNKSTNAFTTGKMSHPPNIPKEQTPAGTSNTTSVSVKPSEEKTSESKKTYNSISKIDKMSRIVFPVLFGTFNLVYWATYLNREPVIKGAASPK
T1 sequence (P28472 26-473 partner): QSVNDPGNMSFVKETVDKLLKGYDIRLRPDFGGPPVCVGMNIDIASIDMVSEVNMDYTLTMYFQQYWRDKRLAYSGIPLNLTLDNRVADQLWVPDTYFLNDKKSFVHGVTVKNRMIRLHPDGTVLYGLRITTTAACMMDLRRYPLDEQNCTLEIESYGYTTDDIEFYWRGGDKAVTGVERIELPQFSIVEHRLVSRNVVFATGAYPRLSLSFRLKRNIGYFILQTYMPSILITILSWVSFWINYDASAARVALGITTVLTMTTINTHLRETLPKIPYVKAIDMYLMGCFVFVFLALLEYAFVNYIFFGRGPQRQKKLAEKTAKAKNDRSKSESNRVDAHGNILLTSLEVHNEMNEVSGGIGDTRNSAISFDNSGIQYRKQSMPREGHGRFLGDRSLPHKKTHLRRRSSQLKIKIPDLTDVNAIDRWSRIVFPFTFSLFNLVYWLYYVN
T1 sequence (P18507 40-467 isoform P18507-1 limits assumed): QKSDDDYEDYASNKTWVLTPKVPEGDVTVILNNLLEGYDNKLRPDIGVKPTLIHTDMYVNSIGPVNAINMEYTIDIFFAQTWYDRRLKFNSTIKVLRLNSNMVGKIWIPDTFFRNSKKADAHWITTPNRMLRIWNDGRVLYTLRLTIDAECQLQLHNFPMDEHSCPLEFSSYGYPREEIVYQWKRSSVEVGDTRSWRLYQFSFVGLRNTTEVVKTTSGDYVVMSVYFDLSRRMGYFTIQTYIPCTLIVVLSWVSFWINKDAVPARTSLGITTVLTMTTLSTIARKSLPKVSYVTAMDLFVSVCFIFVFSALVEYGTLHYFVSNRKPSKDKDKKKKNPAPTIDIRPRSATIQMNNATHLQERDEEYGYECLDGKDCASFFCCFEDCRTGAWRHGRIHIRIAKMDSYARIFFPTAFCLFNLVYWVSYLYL
Experimental: The inventors used electrophysiological methods to determine the inverse agonist efficacy of the drugs to be tested on the α5-GABAA receptor. The detailed methods are as follows:
Different subunits of GABAA receptors were expressed in human […] cell line 293 (HEK293) cell line. The cells were cultured in a culture medium and used as a cell model for screening pain inhibiting drugs. The α, β and γ subunits are necessary to form complete functional GABAA receptors. In this embodiment, the inventors had established the following cell model: α5 subunit (see GenBank Accession No. NM_000810.3 for protein sequences), β3 subunit (see GenBank Accession No. NM_000814.5 for protein sequences) and γ2 subunit (see GenBank Accession No. NM_000816.3 for protein sequences) were expressed in HEK293 cell line at the same time, followed by screening the monoclonal cell line. This cell line contained α5-GABAA receptor and had complete GABAA receptor function.
The monoclonal stably transfected HEK-293 cells expressing α5-GABAA receptor were cultured in 10 cm culture dishes and passaged when the cells grew to 80%-90%. During passaging, the culture medium was aspirated first, then 3 mL of DPBS phosphate buffer salt (Gibco™) was added to the culture dishes, and the culture dishes were shaken slightly, and DPBS was aspirated. 1 mL of trypsin (TrypLE Express, Gibco™) was added thereto, and the cells were digested at 37° C. for 1-2 minutes. Then 3 mL of complete medium (DMEM+10% FBS (Gibco™)) was added and the cells at the bottom of the culture dishes were dispersed. The cell suspension were transferred to a 15 mL centrifugal tube (Corning) and then centrifuged at 200 g for 3 minutes. The supernatant was discarded, 4 mL of complete medium was added, and the cells were gently blown and resuspended for use. If cell passaging was performed, the cell suspension was diluted at a ratio of 1:5 or 1:10. If cells for electrophysiology use were prepared, the cell suspension was diluted in a ratio of 1:12, then added into a 24-well dish (Corning™) in which glass slides were placed and pretreated with Poly-D-Lysine, and the cells were tested after being attached to the walls. The culture time of cells for electrophysiology use was no more than 48 hours.
Drug concentration setting: the final drug concentration used in drug screening was 100 nM, and the GABA concentration range was 0.05 μM. The final drug concentrations used in the dose-inversal agonistic efficiency (%) test were 0.3 nM, 3 nM, 10 nM, 30 nM, 100 nM and 300 nM. The whole cell patch clamp technique was used in electrophysiological experiments, which could refer to the literature (I. Lecker, Y. Yin, D. S. Wang and B. A. Orser, (2013) Potentiation of GABAA receptor activity by volatile anaesthetics is reduced by α5-GABAA receptor-preferring inverse agonists, British Journal of Anaesthesia 110 (S1): i73-i81). The components of extracellular solution (ECS) for electrophysiology use were as follows: 150 mM NaCl, 5 mM KCl, 2.5 mM CaCl2), 1 mM MgCl2, 10 mM HEPES and 10 mM glucose (pH 7.4); electrode internal solutions for electrophysiology use were as follows: 140 mM CsCl, 11 mM EGTA, 10 mM HEPES, 2 mM CaCl2), 1 mM MgCl2, 4 mM MgATP, 2 mM TEA (pH 7.3). The signal acquisition used an EPC-10 amplifier and the PatchMaster software (HEKA). The recording electrode was drawn using borosilicate glass, and the electrode resistance was 4 to 6 MΩ. The ALA-VC3-8PP™ system was used for extracellular administration. Separate cells that grew independently was selected for recording. During recording, the cell membrane potential was clamped at −60 mV. During experiment, an extracellular solution was applied to the cells for about 20 seconds. When the baseline reached to a stable state, the extracellular solution was switched to GABA. Then the current induced by GABA could be detected. […]

Row | inhibition at 0.1 µM | SMILES
1 | 59% | COc1cc2nnc(-c3cc(C)on3)n2nc1OCc1ccc2c(n1)CCN([C@H]1CCOC1)C2 (single isomer, unassigned) [Embodiment 181]
2 | 53.8% | COc1cc2nnc(-c3cc(C)on3)n2nc1OCc1ccc2c(n1)CCN([C@@H]1CCOC1)C2 (single isomer, unassigned) [Embodiment 182]
3 | 26.6% | COc1cc2nnc(-c3cc(C)on3)n2nc1OCc1cccc(N2CCOCC2)n1 [Embodiment 2]
4 | 37.1% | COc1cc2nnc(-c3cc(C)on3)n2nc1OCc1cccc(N(C)C)n1 [Embodiment 3]
5 | 40.8% | COc1cc2nnc(-c3cc(C)on3)n2nc1OCc1cccc(F)n1 [Embodiment 4]
6 | 31.5% | COc1cc2nnc(-c3cc(C)on3)n2nc1OCc1ccccc1C#N [Embodiment 5]
7 | 57.8% | COc1cc2nnc(-c3cc(C)on3)n2nc1OCc1ccc(OCCCC#N)cn1 [Embodiment 8]
8 | 37.1% | COCCOc1ccnc(COc2nn3c(-c4cc(C)on4)nnc3cc2OC)c1 [Embodiment 10]
9 | 35.4% | COc1cc2nnc(-c3cc(C)on3)n2nc1OCc1ccc(C(=O)NCC(F)(F)F)cn1 [Embodiment 11, 6-(((7-Methoxy-3-(5-methylisoxazol-3-yl)-[1,2,4]triazolo[4,3-b]pyridazin-6-yl)oxy)methyl)-N-(2,2,2-trifluoroethyl)nicotinamide]
10 | 29.6% | CCNC(=O)c1ccc(COc2nn3c(-c4cc(C)on4)nnc3cc2OCC)nc1 [Embodiment 12, 6-(((7-Ethoxy-3-(5-methylisoxazol-3-yl)-[1,2,4]triazolo[4,3-b]pyridazin-6-yl)oxy)methyl)-N-ethylnicotinamide]
11 | 29% | COc1cc2nnc(-c3cc(C)on3)n2nc1OCc1ccc(C2=CCCCC2)cn1 [Embodiment 13]
12 | 19.4% | Cc1cc(-c2nnc3cc(OCC4CC4)c(OCc4ccccn4)nn23)no1 [Embodiment 14]
13 | 45.8% | COCCCOc1ccc(COc2nn3c(-c4cc(C)on4)nnc3cc2OC)nn1 [Embodiment 15]
14 | 31.1% | COc1cc2nnc(-c3cc(C)on3)n2nc1OCc1cccc(C)n1 [Embodiment 16]
15 | 47.7% | COc1cc2nnc(-c3cc(C)on3)n2nc1OCc1ncccc1Cl [Embodiment 17]
16 | 23% | COc1cc2nnc(-c3cc(C)on3)n2nc1OCc1cccc(Cl)n1 [Embodiment 18]
17 | 42.9% | COc1cc2nnc(-c3cc(C)on3)n2nc1OCc1ccc(Cl)cn1 [Embodiment 20]
18 | 22.1% | CCOc1cccc(COc2nn3c(-c4cc(C)on4)nnc3cc2OC)n1 [Embodiment 22]
19 | 41.2% | CCOc1ccc(COc2nn3c(-c4cc(C)on4)nnc3cc2OC)nc1 [Embodiment 23]
20 | 35% | COc1cc2nnc(-c3cc(C)on3)n2nc1OCc1ccc(OC(F)F)cn1 [Embodiment 24]
21 | 34.1% | COc1cc2nnc(-c3cc(C)on3)n2nc1OCc1ccc(OC(C)C)cn1 [Embodiment 25]
22 | 41.7% | COCCOc1ccc(COc2nn3c(-c4cc(C)on4)nnc3cc2OC)nn1 [Embodiment 26]
23 | 42% | COc1cc2nnc(-c3cc(C)on3)n2nc1OCc1ccc(OCCCC#N)nn1 [Embodiment 27]
24 | 66.9% | COc1cc2nnc(-c3cc(C)on3)n2nc1OCc1cc(C#N)ccn1 [Embodiment 29]
25 | 29.4% | COc1cc2nnc(-c3cc(C)on3)n2nc1OCc1ncccc1C#N [Embodiment 30]
26 | 38% | COc1cc2nnc(-c3cc(C)on3)n2nc1OCc1ccc(C2CC2)cn1 [Embodiment 34]
27 | 39.3% | CCNC(=O)c1ccc(COc2nn3c(-c4cc(C)on4)nnc3cc2OC)nc1 [Embodiment 35]

Row | inhibition at 0.1 µM | SMILES
28 | 42.1% | COc1ccc(COc2nn3c(-c4cc(C)on4)nnc3cc2OC)nc1 [Embodiment 37]
29 | 32% | COc1cccc(COc2nn3c(-c4cc(C)on4)nnc3cc2OC)n1 [Embodiment 38]
30 | 39% | COc1cc2nnc(-c3cc(C)on3)n2nc1OCc1cccc(C#N)n1 [Embodiment 40]
31 | 39.4% | COc1cc2nnc(-c3cc(C)on3)n2nc1OCc1ccc(C#N)cn1 [Embodiment 41]
32 | 44.9% | COc1cc2nnc(-c3cc(C)on3)n2nc1OCc1ccc(C)cn1 [Embodiment 42]
33 | 44.8% | COc1cnc(COc2nn3c(-c4cc(C)on4)nnc3cc2OC)cn1 [Embodiment 44]
34 | 42.4% | COc1cc2nnc(-c3cc(C)on3)n2nc1OCc1cccc(C(F)(F)F)n1 [Embodiment 45]
35 | 48.7% | COc1cc2nnc(-c3cc(CO)on3)n2nc1OCc1ccccn1 [Embodiment 46, (3-(7-Methoxy-6-(pyridin-2-ylmethoxy)-[1,2,4]triazolo[4,3-b]pyridazin-3-yl]isoxazol-5-yl)methanol]
36 | 34.7% | COCc1cc(-c2nnc3cc(OC)c(OCc4ccc(OC)cn4)nn23)no1 [Embodiment 48, 3-(7-Methoxy-6-((5-methoxypyridin-2-yl)methoxy)-[1,2,4]triazolo[4,3-b]pyridazine-3-yl)-5-(methoxymethyl)isoxazole]
37 | 46.2% | COc1ccnc(COc2nn3c(-c4cc(C)on4)nnc3cc2OC)c1 [Embodiment 51]
38 | 38% | COc1cccnc1COc1nn2c(-c3cc(C)on3)nnc2cc1OC [Embodiment 52]
39 | 48.8% | COc1cc2nnc(-c3cc(C)on3)n2nc1OCc1ccc(S(C)(=O)=O)cn1 [Embodiment 53]
40 | 43.5% | Cc1cc(-c2nnc3cc(OC(F)F)c(OCc4ccccn4)nn23)no1 [Embodiment 54]
41 | 21.6% | COc1cc2nnc(-c3cc(C)on3)n2nc1OCc1ccc(C2CCC2)cn1 [Embodiment 56]
42 | 17.6% | COc1cc2nnc(-c3cc(C)on3)n2nc1OCc1cccc(C2CC2)n1 [Embodiment 57]
43 | 38.5% | COc1cc2nnc(-c3cc(C)on3)n2nc1OCc1ccc(F)cn1 [Embodiment 58]
44 | 35.7% | COc1cc2nnc(-c3cc(C)on3)n2nc1OCc1ccc(C(F)(F)F)cn1 [Embodiment 59]
45 | 45.8% | COc1cnc(COc2nn3c(-c4cc(C)on4)nnc3cc2OC)cc1OC [Embodiment 60]
46 | 45.8% | COc1cc2nnc(-c3cc(C)on3)n2nc1OCc1ccc(OC(F)(F)F)cn1 [Embodiment 61]
47 | 35.7% | COc1ccc(C(F)(F)F)nc1COc1nn2c(-c3cc(C)on3)nnc2cc1OC [Embodiment 62]
48 | 40% | COc1cc2nnc(-c3cc(C)on3)n2nc1OCc1ccn2nccc2n1 [Embodiment 64]
49 | 55.4% | COc1cc2nnc(-c3cc(C)on3)n2nc1OCc1ccnc2ccnn12 [Embodiment 65]
50 | 58% | CCN1Cc2nc(COc3nn4c(-c5cc(C)on5)nnc4cc3OC)ccc2C1=O [Embodiment 67]
51 | 50% | COc1cc2nnc(-c3cc(C)on3)n2nc1OCc1ccc(C2CCCN2)cn1 (centres unmarked) [Embodiment 69, 3-(7-Methoxy-6-((5-(pyrrolidin-2-yl)pyridin-2-yl)methoxy)-[1,2,4]triazolo[4,3-b]pyridazin-3-yl)-5-methylisoxazole]
52 | 31.7% | COc1cc2nnc(-c3cc(C)on3)n2nc1OCc1cccc(C2(F)CNC2)n1 [Embodiment 70]
53 | 40.7% | COc1cc2nnc(-c3cc(C)on3)n2nc1OCc1ccc(C2(F)CNC2)cn1 [Embodiment 71]
